Laboratory results published in patent publication US20260209260A1, “VECTORIZED NHC IRIDIUM(III) COMPLEXES AND USE THEREOF IN PHOTODYNAMIC THERAPY AND/OR DIAGNOSTIC” (CENTRE NATIONAL DE LA RECHERCHE SCIENTIFIQUE, priority 2022, published 2026).
“And” between values parts separate entries of the source, which are not always exact repeats. Equal values may be shown once. Read-outs that look alike come from different tables or passages of the source.

Columns and labels:
Assay type in all cases: cell-based, Human
[1] = test system: cancer cells (all tumor cell lines tested); experiment: Cell viability assay (MTT), summary over the cancer cell lines tested; conditions: for PI values, mean over cancer cells / PI values, median over cancer cells: dark vs blue light 458 nm
Experimental: Cells were grown in humidified incubators at 37° C. in 5% CO2. Murine MC3T3 osteoblast and NIH-3T3 fibroblast cells-used as non-tumor cell models-were cultured in a-MEM medium and DMEM medium supplemented with 10% fetal bovine serum (FBS) and 1% Penicillin/Streptomycin (P/S) antibiotics, respectively. Human T24 bladder, MGHU3 bladder, Scaber bladder, A549 lung, MCF7 breast, MiaPaCa2 pancreas cancer cells were cultured in DMEM medium supplemented with 10% FBS and 1% P/S antibiotics. […] Human Hela cervix and HepG2 liver cancer cells were cultured EMEM medium supplemented with 10% FBS and 1% P/S antibiotics.
MTT reagent (3-(4,5-dimethylthiazol-2-yl)-2,5-diphenyltetrazolium bromide) was used to determine cell death as originally described by Mosmann. Briefly, cells were seeded from 5,000 to 10,000 cells/well in 24-well plates (1 mL) depending on the cell type and allowed to attach overnight. The complexes were prepared in DMSO. The concentration of the complexes was calculated based on the elemental composition of the complexes determined by the elemental analyses. All cell viability experiments were carried out with a fixed concentration of 0.1% (v/v) DMSO. After 72 h of treatment, cells were incubated at 37° C. and 5% CO2 with 25 μL of MTT solution (5 mg/ml; Sigma-Aldrich) in 24-well plates for 3 to 4 h. After solubilization with 500 μL of DMSO, formazan was quantified spectrophotometrically with a microplate reader at 570 nm absorbance (ClarioSTAR, BMG LabTech). […] All the results were calculated from data obtained in at least three independent experiments performed in triplicate.
Two sets of experiments were conducted in parallel for each complex to be studied:
1. The cells were incubated with the different complexes (in the dark) for 72 h.
2. The cells were incubated for 8 h with the different complexes (in the dark), then irradiated for 10 min, followed by an incubation in the dark up to 72 h.

[2] = test system: C4-2B prostate cancer cells (PSMA-positive); experiment: Cell viability assay (MTT), dark and blue light
Summary of the method: (§1)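 MTT, 570 nm. Complexes at fixed 0.1% DMSO; dark arm 72 h; light arm 8 h preincubation, 10 min 458 nm LED irradiation, dark up to 72 h total. RPMI/10% FBS culture, 37 °C, 5% CO2; ≥3 independent experiments in triplicate.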

[3] = test system: PC-3 prostate cancer cells (PSMA-negative); experiment: Cell viability assay (MTT), dark and blue light
Summary of the method: as §1

[4] = test system: 22rV1 prostate cancer cells (PSMA-positive); experiment: Cell viability assay (MTT), dark and blue light
Summary of the method: as §1

Hela cervix cancer cells = experiment: Cell viability assay (MTT), dark and blue light; conditions: for Photosensitizing index (PI) HeLa: dark vs blue light 458 nm
Summary of the method: (§2)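 Readout after 72 h: MTT reduction at 570 nm. Light condition: 8 h dark loading, 10 min irradiation at 458 nm (LEDs, 9.6 W), dark to 72 h; control condition kept dark for the full 72 h.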

[5] = test system: MGHU3 bladder cancer cells; experiment: Cell viability assay (MTT), dark and blue light; conditions: for Photosensitizing index (PI) MGHU3: dark vs blue light 458 nm
Summary of the method: as §2

[6] = test system: Scaber bladder cancer cells; experiment: Cell viability assay (MTT), dark and blue light; conditions: for SI (vs NIH-3T3) Scaber Blue: blue light 458 nm; for Photosensitizing index (PI) Scaber: dark vs blue light 458 nm
Summary of the method: as §2

MCF7 breast cancer cells = experiment: Cell viability assay (MTT), dark and blue light; conditions: for Photosensitizing index (PI) MCF7: dark vs blue light 458 nm
Summary of the method: as §2

A549 lung cancer cells = experiment: Cell viability assay (MTT), dark and blue light; conditions: for Photosensitizing index (PI) A549: dark vs blue light 458 nm
Summary of the method: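 Tumor lines and non-tumor murine MC3T3 osteoblasts and NIH-3T3 fibroblasts were seeded overnight and treated with complexes at 0.1% (v/v) DMSO for 72 h. Light samples were irradiated 10 min after 8 h of dark incubation. Viability was measured by MTT absorbance at 570 nm.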

[7] = 8 h in the dark, blue light 458 nm 10 min, then dark up to 72 h, read-out: GI50 HeLa Blue
[8] = in the dark, 72 h, read-out: GI50 HeLa Dark
[9] = 8 h in the dark, blue light 458 nm 10 min, then dark up to 72 h, read-out: GI50 MGHU3 Blue
[10] = in the dark, 72 h, read-out: GI50 MGHU3 Dark
[11] = 8 h in the dark, blue light 458 nm 10 min, then dark up to 72 h, read-out: GI50 Scaber Blue
[12] = in the dark, 72 h, read-out: GI50 Scaber Dark
[13] = 8 h in the dark, blue light 458 nm 10 min, then dark up to 72 h, read-out: GI50 MCF7 Blue
[14] = in the dark, 72 h, read-out: GI50 MCF7 Dark
[15] = 8 h in the dark, blue light 458 nm 10 min, then dark up to 72 h, read-out: GI50 A549 Blue
[16] = in the dark, 72 h, read-out: GI50 A549 Dark

F[P-](F)(F)(F)(F)F.O=C(O)CC[C@H](NC(=O)N[C@@H](CCCCNC(=O)CCn1cc[n+]2[c]1[Ir-3]13([c]4ccccc4-c4c5ccccc5cc[n+]41)([c]1ccccc1-c1c4ccccc4cc[n+]13)[n+]1ccccc1-2)C(=O)O)C(=O)O [III-h]
selectivity for cancer cells over non-tumor cells, in words [1]: most selective effects under irradiated conditions
GI50 ([2]; 8 h in the dark, blue light 458 nm 10 min, then dark up to 72 h, read-out: GI50 C4-2b Blue): 0.31 µM
GI50 ([2]; C4-2b, blue light, read-out: GI50): 0.31 µM
Photosensitizing index (PI) ([2]; C4-2b, dark vs blue light): 12.9
GI50 ([2]; C4-2b, dark, read-out: GI50): 4 µM
SI (vs MC3T3) C4-2b Blue ([2]; blue light 458 nm): 27.0
SI (vs NIH-3T3) C4-2b Blue ([2]; blue light 458 nm): 61.9
SI (vs MC3T3) C4-2b Dark ([2]; dark): 13.0
GI50 ([3]; 8 h in the dark, blue light 458 nm 10 min, then dark up to 72 h, read-out: GI50 PC-3 Blue): 0.68 µM
GI50 ([3]; PC3, blue light, read-out: GI50): 0.68 µM
Photosensitizing index (PI) ([3]; PC3, dark vs blue light): 31.2
GI50 ([3]; PC3, dark, read-out: GI50): 21.2 µM
SI (vs MC3T3) PC-3 Blue ([3]; blue light 458 nm): 12.2
SI (vs NIH-3T3) PC-3 Blue ([3]; blue light 458 nm): 28.0
GI50 ([3]; in the dark, 72 h, read-out: GI50 PC-3 Dark): 21.2 µM
GI50 ([4]; 22Rv1, blue light, read-out: GI50): 0.14 µM
Photosensitizing index (PI) ([4]; 22Rv1, dark vs blue light): 29.3
GI50 ([4]; 22Rv1, dark, read-out: GI50): 4.1 µM
GI50 ([4]; 8 h in the dark, blue light 458 nm 10 min, then dark up to 72 h, read-out: GI50 22Rv1 Blue): 0.14 µM
SI (vs NIH-3T3) 22Rv1 Blue ([4]; blue light 458 nm): 131.9
SI (vs MC3T3) 22Rv1 Dark ([4]; dark): 12.9
SI (vs NIH-3T3) 22Rv1 Dark ([4]; dark): >25
GI50 ([4]; in the dark, 72 h, read-out: GI50 22Rv1 Dark): 4.1 µM

F[P-](F)(F)(F)(F)F.O=C(CCCC[C@@H]1SC[C@@H]2NC(=O)N[C@@H]21)NCCCn1cc[n+]2[c]1[Ir-3]13([c]4ccccc4-c4c5ccccc5cc[n+]41)([c]1ccccc1-c1c4ccccc4cc[n+]13)[n+]1ccccc1-2 [I-h]
PI values, mean over cancer cells [1]: 19.0 fold
PI values, median over cancer cells [1]: 19.3 fold
GI50 (Hela cervix cancer cells; [7]): 2.86 µM
SI (vs MC3T3) HeLa Blue (Hela cervix cancer cells; blue light 458 nm): 1.7
SI (vs MC3T3) HeLa Dark (Hela cervix cancer cells; dark): 1.0
SI (vs NIH-3T3) HeLa Dark (Hela cervix cancer cells; dark): 2.4
Photosensitizing index (PI) HeLa (Hela cervix cancer cells): 14.6
GI50 (Hela cervix cancer cells; [8]): 41.8 µM
GI50 [5, 9]: 1.6 µM
SI (vs MC3T3) MGHU3 Dark [5]: 1.8
Photosensitizing index (PI) MGHU3 [5]: 16.7
GI50 [5, 10]: 26.7 µM
GI50 [6, 11]: 1 µM
SI (vs NIH-3T3) Scaber Blue [6]: 10.4
SI (vs MC3T3) Scaber Dark ([6]; dark): 1.7
SI (vs NIH-3T3) Scaber Dark ([6]; dark): 4.1
Photosensitizing index (PI) Scaber [6]: 24.8
GI50 [6, 12]: 24.8 µM
GI50 (MCF7 breast cancer cells; [13]): 0.99 µM
SI (vs NIH-3T3) MCF7 Dark (MCF7 breast cancer cells; dark): 8.6
Photosensitizing index (PI) MCF7 (MCF7 breast cancer cells): 12.0
GI50 (MCF7 breast cancer cells; [14]): 11.9 µM
GI50 (A549 lung cancer cells; [15]): 0.8 µM and 0.6 µM
SI (vs MC3T3) A549 Dark (A549 lung cancer cells; dark): 3.2
Photosensitizing index (PI) A549 (A549 lung cancer cells): 21.8
GI50 (A549 lung cancer cells; [16]): 13.1 µM

F[P-](F)(F)(F)(F)F.O=C(CCCC[C@@H]1SC[C@@H]2NC(=O)N[C@@H]21)NCCCn1cc[n+]2[c]1[Ir-3]13([c]4ccccc4-c4ccc5ccccc5[n+]41)([c]1ccccc1-c1ccc4ccccc4[n+]13)[n+]1ccccc1-2 [I-g]
selectivity for cancer cells over non-tumor cells, in words [1]: most selective effects under irradiated conditions
PI values, mean over cancer cells [1]: 7.5 fold
PI values, median over cancer cells [1]: 6.0 fold
GI50 (Hela cervix cancer cells; [7]): 10.8 µM
SI (vs MC3T3) HeLa Dark (Hela cervix cancer cells; dark): 1.2
Photosensitizing index (PI) HeLa (Hela cervix cancer cells): 4.1
GI50 (Hela cervix cancer cells; [8]): 44.3 µM
GI50 [5, 9]: 4.3 µM
SI (vs NIH-3T3) MGHU3 Blue ([5]; blue light 458 nm): 14.3
SI (vs MC3T3) MGHU3 Dark [5]: 2.2
Photosensitizing index (PI) MGHU3 [5]: 5.9
GI50 [5, 10]: 25.4 µM
GI50 [6, 11]: 2.5 µM
SI (vs NIH-3T3) Scaber Blue [6]: 24.7
SI (vs MC3T3) Scaber Dark ([6]; dark): 3.9
Photosensitizing index (PI) Scaber [6]: 5.6
GI50 [6, 12]: 14.1 µM
GI50 (MCF7 breast cancer cells; [13]): 2.2 µM
SI (vs MC3T3) MCF7 Blue (MCF7 breast cancer cells; blue light 458 nm): 14.3
SI (vs NIH-3T3) MCF7 Blue (MCF7 breast cancer cells; blue light 458 nm): 28.0
SI (vs MC3T3) MCF7 Dark (MCF7 breast cancer cells; dark): 4.0
Photosensitizing index (PI) MCF7 (MCF7 breast cancer cells): 6.3
GI50 (MCF7 breast cancer cells; [14]): 13.8 µM
GI50 (A549 lung cancer cells; [15]): 1.5 µM
SI (vs NIH-3T3) A549 Blue (A549 lung cancer cells; blue light 458 nm): 41.1
SI (vs MC3T3) A549 Dark (A549 lung cancer cells; dark): 6.1
SI (vs NIH-3T3) A549 Dark (A549 lung cancer cells; dark): 12.1
Photosensitizing index (PI) A549 (A549 lung cancer cells): 6.1
GI50 (A549 lung cancer cells; [16]): 9.1 µM
